Among the test systems are HT29 colon; KM12 colon; UACC-257 melanoma; NCI-H226 lung; M14 melanoma; RPMI-8226 leukemia; HOP-92 NSCLC; SW-620 colon; UO-31 renal; CCRF-CEM leukemia.
What all share (experiment): DTP human tumour cell line panel, 48 h

The term TGI denotes the concentration giving total growth inhibition. Read a high TGI as less potent growth arrest. As usually defined, the GI50 is the concentration giving 50% growth inhibition.

Values joined by “and” are separate entries in the source; they are usually repeats but may differ in a detail not shown here. Identical values can stand only once.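 Cultured in 96-well plates, cells were exposed to test compound for 48 hours across five concentrations. GI50: concentration for 50% inhibition of growth. TGI: total growth inhibition.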

On to `O=C1C=CC(=O)c2c1ccc1c3ccccc3n(-c3cccc([N+](=O)[O-])c3)c21`, for which the concentration for total growth inhibition (TGI) was greater than 10 µM in the experiment with HT29 colon; greater than 10 µM with KM12 colon; 7.38 µM in the experiment on UACC-257 melanoma; greater than 10 µM in the experiment on NCI-H226 lung; 3.86 µM in the experiment on M14 melanoma; 3.9 µM in the experiment on RPMI-8226 leukemia. Further, the TGI in the experiment on HOP-92 NSCLC is 4.05 µM; in the experiment with SW-620 colon, 2.79 µM; in the experiment with UO-31 renal, greater than 10 µM; in the experiment with CCRF-CEM leukemia it was 0.82 µM.
On to `COc1cc(OC)c(/C=C/c2c3ccccc3cc[n+]2C)c(OC)c1`, for which the GI50 with HT29 colon is 1.64 µM; in the experiment on KM12 colon, 0.673 µM; with UACC-257 melanoma it was 0.674 µM; with NCI-H226 lung it was 2.73 µM; with M14 melanoma, 2.62 µM; in the experiment with RPMI-8226 leukemia it was 0.377 µM. The GI50 in the experiment with HOP-92 NSCLC was 1.8 µM; in the experiment with SW-620 colon, 2.12 µM; with UO-31 renal, 18.5 µM; with CCRF-CEM leukemia, 2.08 µM. In addition, the TGI is 10.3 µM in the experiment with HT29 colon; 6.85 µM in the experiment with KM12 colon; 6.01 µM in the experiment with UACC-257 melanoma; greater than 100 µM in the experiment with NCI-H226 lung; 15.4 µM with M14 melanoma; 6.92 µM in the experiment on RPMI-8226 leukemia. The TGI with HOP-92 NSCLC is 12.4 µM; with SW-620 colon it was 14.2 µM; in the experiment on UO-31 renal it was greater than 100 µM; in the experiment with CCRF-CEM leukemia, greater than 72.1 µM.
With `Cn1cc(C2=C(c3cccc(Br)c3)C(=O)NC2=O)c2ccccc21`, the GI50 is greater than 15 µM in the experiment with HT29 colon; 8.43 µM in the experiment with KM12 colon; greater than 19.8 µM in the experiment on UACC-257 melanoma; 10.4 µM in the experiment on NCI-H226 lung; 17.1 µM in the experiment with M14 melanoma; 20.1 µM in the experiment with RPMI-8226 leukemia. The GI50 in the experiment on HOP-92 NSCLC was 8.62 µM; in the experiment on SW-620 colon, 9.44 µM; in the experiment with UO-31 renal, 6.42 µM; in the experiment with CCRF-CEM leukemia, 12.3 µM. Also, the TGI in the experiment with HT29 colon, with KM12 colon, in the experiment with UACC-257 melanoma, in the experiment with NCI-H226 lung, in the experiment with M14 melanoma and in the experiment with RPMI-8226 leukemia was greater than 25 µM each time. For the same molecule, the TGI in the experiment with HOP-92 NSCLC, in the experiment on SW-620 colon, with UO-31 renal and with CCRF-CEM leukemia was greater than 25 µM throughout.
Regarding `O=C1OCC2C1C1c3ccccc3C(O)c3ccccc3C21` (configuration not stated), the TGI in the experiment on HT29 colon, with KM12 colon, in the experiment on UACC-257 melanoma, with NCI-H226 lung, with M14 melanoma and in the experiment on RPMI-8226 leukemia was greater than 100 µM each time. For the same molecule, the TGI with HOP-92 NSCLC, in the experiment with SW-620 colon, in the experiment on UO-31 renal and in the experiment with CCRF-CEM leukemia was greater than 100 µM each time.
For `CC(C)C(=O)NS(=O)(=O)c1ccccc1`, the TGI in the experiment on HT29 colon, in the experiment with KM12 colon, in the experiment with UACC-257 melanoma, in the experiment on NCI-H226 lung, in the experiment with M14 melanoma and in the experiment with RPMI-8226 leukemia was greater than 100 µM in each case. Moreover, the TGI in the experiment on HOP-92 NSCLC, with SW-620 colon, in the experiment with UO-31 renal and in the experiment on CCRF-CEM leukemia was greater than 100 µM each time.
As to `C#COc1cccc(Nc2c(C#N)cnc3ncc(NC(=O)CCl)cc23)c1`, the GI50 is 21.8 µM in the experiment with HT29 colon; 56.7 µM with KM12 colon; greater than 62.5 µM with UACC-257 melanoma; greater than 62.5 µM in the experiment with NCI-H226 lung; greater than 62.5 µM in the experiment with M14 melanoma; greater than 62.5 µM in the experiment on RPMI-8226 leukemia. Moreover, the GI50 in the experiment with HOP-92 NSCLC was greater than 62.5 µM; with SW-620 colon, 19.8 µM; with UO-31 renal, 35.1 µM; in the experiment on CCRF-CEM leukemia it was 3.72 µM. In addition, the TGI in the experiment with HT29 colon, in the experiment on KM12 colon, in the experiment on UACC-257 melanoma, in the experiment with NCI-H226 lung, in the experiment on M14 melanoma and in the experiment on RPMI-8226 leukemia was greater than 62.5 µM in each case. Further, the TGI in the experiment on HOP-92 NSCLC, with SW-620 colon, with UO-31 renal and in the experiment with CCRF-CEM leukemia was greater than 62.5 µM each time.
With `CCOC(=O)/C=C(/C)Sc1cc(O)c2ccccc2c1O`, the GI50 in the experiment on HT29 colon is 19.2 µM; with KM12 colon, 12.9 µM; with UACC-257 melanoma, 1.8 µM; in the experiment with NCI-H226 lung it was 14.5 µM; in the experiment on M14 melanoma, 1.76 µM; in the experiment with RPMI-8226 leukemia, 2.29 µM. Further, the GI50 is 3.21 µM with HOP-92 NSCLC, 2.3 µM in the experiment with SW-620 colon, 1.59 µM in the experiment with UO-31 renal and 2.73 µM in the experiment with CCRF-CEM leukemia. The TGI with HT29 colon was determined as 48.4 µM; in the experiment with KM12 colon, 26.8 µM; with UACC-257 melanoma, 3.87 µM; in the experiment with NCI-H226 lung, 32.8 µM; with M14 melanoma, 3.48 µM; with RPMI-8226 leukemia it was 9.09 µM. The TGI in the experiment on HOP-92 NSCLC is 11.9 µM; in the experiment with SW-620 colon, 5.39 µM; with UO-31 renal, 11.1 µM; with CCRF-CEM leukemia, 6.83 µM.
`Cc1nn(C(=O)c2ccc(Cl)cc2)c2c1C(/C=C/c1ccccc1)SC(N)=N2` (configuration not stated): the TGI in the experiment on HT29 colon, in the experiment with KM12 colon, with UACC-257 melanoma, in the experiment with NCI-H226 lung, in the experiment with M14 melanoma and with RPMI-8226 leukemia was greater than 10 µM in each case. Also, the TGI in the experiment on HOP-92 NSCLC, in the experiment with SW-620 colon and in the experiment on CCRF-CEM leukemia was greater than 10 µM each time.
As to `COC(=O)[C@@H](C)C[C@H](Cc1ccccc1)NC(=O)c1csc([C@@H](C[C@H](C(C)C)N(C)C(=O)[C@@H](NC(=O)[C@H]2CCCCN2C)C2CCCCC2)OC(C)=O)n1`, the GI50 in the experiment on HT29 colon was 0.000314 µM and 0.0025 µM; in the experiment with KM12 colon it was 0.000296 µM and 0.0025 µM; with NCI-H226 lung it was 0.0025 µM; in the experiment with M14 melanoma, 0.000304 µM and < 0.0025 µM; in the experiment on RPMI-8226 leukemia it was 0.000324 µM and 0.0025 µM; with HOP-92 NSCLC, 0.000977 µM and 0.0025 µM. Also, the GI50 in the experiment on SW-620 colon was 0.000424 µM and 0.0025 µM; in the experiment with UO-31 renal, 0.00684 µM and 0.0415 µM; in the experiment with CCRF-CEM leukemia, 0.00195 µM and 0.0025 µM. In addition, the TGI is 4.95 µM in the experiment on HT29 colon; greater than 25 µM in the experiment on KM12 colon; greater than 25 µM with NCI-H226 lung; 0.00312 µM and < 0.0025 µM with M14 melanoma; 3.64 µM in the experiment on RPMI-8226 leukemia; 0.0112 µM in the experiment on HOP-92 NSCLC. Besides, the TGI in the experiment on SW-620 colon is greater than 25 µM; with UO-31 renal it was 7.76 µM; with CCRF-CEM leukemia it was 5.8 µM.
As for `NCCSc1nc(-c2ccccc2)c(-c2ccccc2)o1`, the TGI in the experiment with HT29 colon, with KM12 colon, with UACC-257 melanoma, with NCI-H226 lung, in the experiment on M14 melanoma and with RPMI-8226 leukemia was greater than 100 µM in each case. In addition, the TGI in the experiment with HOP-92 NSCLC, in the experiment on SW-620 colon and in the experiment with UO-31 renal was greater than 100 µM each time.
Consider `c1ccc2c(c1)c1c(c3ccccc32)CN2CCCC2C1` (configuration not stated), for which the TGI is greater than 34.8 µM with HT29 colon; 15.7 µM in the experiment with KM12 colon; 20.3 µM with UACC-257 melanoma; 15.8 µM in the experiment on M14 melanoma; greater than 24.2 µM with RPMI-8226 leukemia; 13.4 µM in the experiment on HOP-92 NSCLC. The values for the TGI in the experiment on SW-620 colon, with UO-31 renal and with CCRF-CEM leukemia were 16.7 µM, 11.8 µM and 15.5 µM, respectively.
As for `Cc1cc(NS(=O)(=O)c2ccc(Nc3c4ccccc4nc4c(C(=O)N5CCN(CCO)CC5)ccc(Cl)c34)cc2)no1`, the TGI with HT29 colon, in the experiment with KM12 colon, with UACC-257 melanoma, with NCI-H226 lung, with M14 melanoma and with RPMI-8226 leukemia was greater than 100 µM in each case. The TGI in the experiment with HOP-92 NSCLC is greater than 100 µM; in the experiment on UO-31 renal, greater than 100 µM; with CCRF-CEM leukemia, 74 µM.
As for `COc1ccc(CCNC(=O)c2ccc(NC3=C(Cl)C(=O)N(Cc4ccccc4)C3=O)cc2)cc1OC`, the GI50 is 7.88 µM in the experiment with HT29 colon; 23.5 µM in the experiment on KM12 colon; 20.3 µM with UACC-257 melanoma; 10 µM in the experiment with NCI-H226 lung; 5.47 µM in the experiment on M14 melanoma; 2.27 µM with RPMI-8226 leukemia. For the same molecule, the GI50 was 2.22 µM in the experiment with HOP-92 NSCLC and 0.48 µM with CCRF-CEM leukemia. Also, the total growth inhibition concentration (TGI) with HT29 colon is greater than 100 µM; in the experiment with KM12 colon, greater than 100 µM; in the experiment with UACC-257 melanoma, 48.6 µM; in the experiment with NCI-H226 lung it was greater than 100 µM; in the experiment with M14 melanoma, greater than 100 µM; with RPMI-8226 leukemia, 6.5 µM. Also, the TGI in the experiment on HOP-92 NSCLC came to 5.75 µM; with CCRF-CEM leukemia it was 3.71 µM.
`COC(=O)[C@H]1C=C[C@@H](C)n2c(=O)c3cc4ccccc4cc3c(=O)n21`: the TGI in the experiment with KM12 colon, in the experiment on UACC-257 melanoma, in the experiment with NCI-H226 lung, with M14 melanoma, in the experiment with RPMI-8226 leukemia and with HOP-92 NSCLC was greater than 100 µM in each case. Also, the TGI with SW-620 colon, in the experiment with UO-31 renal and with CCRF-CEM leukemia was greater than 100 µM in each case.
As for `O=C(CSC1CCc2ccccc21)N/N=C/c1ccccc1O` (configuration not stated), the GI50 in the experiment on HT29 colon was 18.3 µM; in the experiment on KM12 colon, 3.73 µM; in the experiment with NCI-H226 lung, 3.11 µM; in the experiment on M14 melanoma it was 3.7 µM; in the experiment with RPMI-8226 leukemia, 7.47 µM; with HOP-92 NSCLC, 2.61 µM. Besides, the results for the GI50 in the experiment with SW-620 colon, with UO-31 renal and in the experiment with CCRF-CEM leukemia were 5.66 µM, 0.985 µM and 1.64 µM, respectively. In addition, the TGI turned out to be 52.6 µM in the experiment on HT29 colon; 23.7 µM in the experiment on KM12 colon; 35.8 µM with NCI-H226 lung; 63 µM with M14 melanoma; 38.4 µM with RPMI-8226 leukemia; 37.5 µM with HOP-92 NSCLC. Besides, the TGI with SW-620 colon was 81.4 µM; with UO-31 renal, 17 µM; in the experiment with CCRF-CEM leukemia, 45.4 µM.

These data come from PubChem BioAssay (NCI).
